From patent US20160290995A1, “METHODS OF SELECTING AKT AGONISTS OR ANTAGONISTS” (OREGON HEALTH & SCIENCE UNIVERSITY, priority 2015, published 2016)

Experiments:
Akt [1] = test: FOXO1-clover reporter live-cell imaging (relative nuclear intensity) in C3H10T1/2 fibroblasts; type: cell-based, mouse; details: for change of nuclear levels of the reporter on growth factor addition (result in words): different concentrations; for change of nuclear levels of the reporter on growth factor addition (result in words) / time to half-maximal translocation/accumulation of reporter in the cytoplasm after onset of incubation / time to maximal translocation values: cells pre-incubated in SFM, population level; for time to half-maximal translocation/accumulation of reporter in the cytoplasm after onset of incubation / time to maximal translocation values: different growth factor concentrations
Procedure: (§1) Cells were imaged every 2-min for 60 min. At the end of the incubation period whole cell lysates were collected.
10T1/2 cells and C2 myoblasts were incubated in serum-free medium for 90 min. R3-IGF-I was added in supplemented FluoroBrite [0 to 500 pM], and cells were imaged every 2-min for 60 min. […]
(§2) Live cell imaging was performed using an EVOS FL Auto microscope with a stage top incubator that was maintained at 37° C. and 95% humidified air with 5% CO2. Images were collected at 100× magnification at different intervals, using a 10× Fluorite objective (numerical aperture: 0.3), and a GFP light cube (excitation peak, 472/22 nm; emission peak, 510/42 nm). Images were analyzed with the NIH ImageJ plug-in Fiji (NIH, Bethesda, Md.), after using the Polynomial Fit plug-in to subtract background fluorescence, the Stack Reg (rigid registration) plug-in to register images, and the Gaussian Blur plug-in (at 2-pixels) to average fluorescence across pixels. Individual cells were manually tracked using the mTrackJ plug-in (Meijering E et al, Methods Enzymol 504, 183-200 (2012); incorporated by reference herein) by selecting a single point in the nucleus. Cells that died, divided, or migrated out of frame were excluded from analysis. In experiments performed in 6-well dishes, two locations on opposite sides of the well were imaged, while for studies using 24-well plates, one central location was imaged. In each location, at least 25 cells were tracked.

Akt [2] = test: FOXO1-clover reporter live-cell imaging in C2 myoblasts; type: cell-based, mouse; details: different concentrations of R3-IGF-I, 60 min
Procedure: C3H10T1/2 mouse embryonic fibroblasts (ATCC #CCL226) were incubated in DMEM supplemented with 10% FBS. Mouse C2 myoblasts (Yaffe and Saxel, 1977) were grown in DMEM supplemented with 10% FBS and 10% newborn calf serum. Cells were transduced at 50% of confluent density with concentrated virus in the presence of 6 μg/ml polybrene, as described (Mukherjee A et al, Mol Cell Biol 30, 1018-1027 (2010); incorporated by reference herein). Cells were then selected by incubation with puromycin (2 μg/ml) for one week. Surviving cells were sorted by fluorescence intensity using a Becton-Dickinson Influx cell sorter at the OHSU Flow Cytometry Core Facility. Reporter expression was stable for at least 10 passages in each sorted cell population.
10T1/2 cells and C2 myoblasts were incubated in serum-free medium for 90 min. R3-IGF-I was added in supplemented FluoroBrite [0 to 500 pM], and cells were imaged every 2-min for 60 min.

Akt [3] = test: FoxO1-clover reporter live-cell imaging in HeLa cells; type: cell-based; details: IGF-I 500 pM, insulin 1400 pM, EGF 4.2 nM, PDGF-BB 4.1 nM, PDGF-AA 3.5 nM; 90 min
Procedure: HeLa cells (ATCC #CCL2) were incubated in DMEM supplemented with 10% FBS. Cells were transduced at 50% of confluent density with concentrated FoxO1-clover virus in the presence of polybrene (6 μg/ml), as described (Gross S M and Rotwein P, Skelet Muscle 3, doi10.1186/2044-5040-3-10 (2013); incorporated by reference herein), and sorted by fluorescence intensity with a Becton-Dickinson Influx cell sorter. Reporter expression was stable for at least 10 passages in each sorted cell population. C3H10T1/2 mouse embryonic fibroblasts (ATC #CCL226) stably expressing FoxO1-clover (Gross and Rotwein, 2015), were maintained under selection with puromycin (2 μg/ml).
as §2, with “tracked. The relative nuclear intensity of the FoxO1-clover reporter protein was calculated in each cell by normalizing the values measured at time 0 to 100%. This corresponded to incubation in serum-free medium (SFM). In graphs in which single cell responses were plotted with C3H10T1/2 cells, we applied a time-weighted smoothing filter to each data point. This consisted of averaging contributions from the two prior and two succeeding times (adding 50% of the prior or succeeding time point, and 25% of the next succeeding or earlier time point to 100% of the value of the time point in question, and then dividing by 2.5).” for “tracked.”
Short-term responses to individual growth factors: C3H10T1/2 cells were incubated in serum-free Fluorobrite medium plus 2 mM L-glutamine and 0.1% bovine serum albumin for 90 min. Different concentrations of growth factors were added and images were collected every 2 min for 90 min. Growth factors included insulin [0 to 1400 pM], EGF [0 to 4.2 nM], PDGF-AA [0 to 1400 pM], or PDGF-BB [0 to 104 pM]. HeLa cells were incubated in serum-free Fluorobrite medium for 120 min and then incubated with insulin [1400 pM], EGF [4.2 nM], PDGF-AA [3.5 nM], PDGF-BB [4.1 nM], or R3-486 IGF-I [500 pM], with images collected every 2 min.

Akt phosphorylation [4] = test: Immunoblotting of Akt and PRAS40 phosphorylation in 10T1/2 whole cell lysates; type: cell-based, mouse
Procedure: as §1
(§3) Whole cell protein lysates were prepared as described (Mukherjee A and Rotwein P, Mol Endorcrinol 22, 1238-1250 (2008); incorporated by reference herein). Protein aliquots (15 μg/lane) were resolved by SDS-PAGE (12% separating gel), followed by transfer to Immobilon-FL membranes, and blocking with 50% AquaBlock solution. Membranes were incubated sequentially with primary and secondary antibodies, as described (Mukherjee and Rotwein, 2008 supra). Primary antibodies were incubated for 12-16 hr at a 1:1000 dilution, except for α-tubulin (1:10,000), and secondary antibodies for 90 min at 1:5000. Images were captured using the LiCoR Odyssey and version 3.0 analysis software (Lincoln, Nebr.).
C3H10T1/2 cells stably expressing FoxO1-clover were incubated in SFM with Fluorobrite imaging media for 90 min followed by addition of insulin [1400 pM], EGF [4.2 nM], PDGF-AA [1400 pM], or PDGF BB [104 pM]. Whole protein lysates were collected after 0, 5, 15, 30, 60, and 90 min of growth factor exposure by washing cells twice with cold PBS and addition of RIPA buffer containing protease and phosphatase inhibitors (Mukherjee A and Rotwein P, Mol Endocrinol 22, 1238-1250 (2008); incorporated by reference herein). Protein aliquots (12.5 μg/lane) were resolved by SDS PAGE (10% separating gels), and transferred onto Immobilon-FL membranes. Membranes were incubated in 50% AquaBlock for 60 min, followed by addition of primary antibodies at 1:1000 dilution for 16 hr, and secondary antibodies for 90 min at 1:5000. Images were collected using the LiCoR Odyssey and analysis software version 3.0 (Lincoln, Nebr.).

Akt phosphorylation [5] = test: Immunoblotting of Akt phosphorylation in C2 myoblast whole cell lysates; type: cell-based, mouse; details: different concentrations of IGF-I, C2 myoblasts
Procedure: as §3

IGF-I receptor = IGF-I receptor (Homo sapiens, UniProt P08069); details: cited from earlier work
IGF-I receptor, sequence (P08069 31-736 limits assumed, species assumed): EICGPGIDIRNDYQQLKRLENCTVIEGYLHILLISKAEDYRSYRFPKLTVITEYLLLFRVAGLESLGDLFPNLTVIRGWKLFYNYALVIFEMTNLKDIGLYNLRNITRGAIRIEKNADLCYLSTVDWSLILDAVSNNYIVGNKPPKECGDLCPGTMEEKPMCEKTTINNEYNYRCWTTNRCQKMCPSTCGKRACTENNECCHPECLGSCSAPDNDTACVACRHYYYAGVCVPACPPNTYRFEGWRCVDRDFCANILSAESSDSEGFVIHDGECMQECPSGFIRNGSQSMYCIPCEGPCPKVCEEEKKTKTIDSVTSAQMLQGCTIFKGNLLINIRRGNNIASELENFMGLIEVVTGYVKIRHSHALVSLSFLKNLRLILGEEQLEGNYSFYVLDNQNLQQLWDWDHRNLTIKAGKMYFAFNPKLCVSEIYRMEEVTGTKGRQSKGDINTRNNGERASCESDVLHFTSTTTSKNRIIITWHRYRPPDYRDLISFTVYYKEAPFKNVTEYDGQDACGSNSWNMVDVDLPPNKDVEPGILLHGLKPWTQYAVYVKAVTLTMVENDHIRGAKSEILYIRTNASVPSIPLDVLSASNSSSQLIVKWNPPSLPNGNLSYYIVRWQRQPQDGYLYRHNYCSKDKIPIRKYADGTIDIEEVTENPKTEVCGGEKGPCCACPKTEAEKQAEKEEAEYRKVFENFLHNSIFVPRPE
IGF-I receptor, sequence (P08069 741-1367 partner limits assumed, species assumed): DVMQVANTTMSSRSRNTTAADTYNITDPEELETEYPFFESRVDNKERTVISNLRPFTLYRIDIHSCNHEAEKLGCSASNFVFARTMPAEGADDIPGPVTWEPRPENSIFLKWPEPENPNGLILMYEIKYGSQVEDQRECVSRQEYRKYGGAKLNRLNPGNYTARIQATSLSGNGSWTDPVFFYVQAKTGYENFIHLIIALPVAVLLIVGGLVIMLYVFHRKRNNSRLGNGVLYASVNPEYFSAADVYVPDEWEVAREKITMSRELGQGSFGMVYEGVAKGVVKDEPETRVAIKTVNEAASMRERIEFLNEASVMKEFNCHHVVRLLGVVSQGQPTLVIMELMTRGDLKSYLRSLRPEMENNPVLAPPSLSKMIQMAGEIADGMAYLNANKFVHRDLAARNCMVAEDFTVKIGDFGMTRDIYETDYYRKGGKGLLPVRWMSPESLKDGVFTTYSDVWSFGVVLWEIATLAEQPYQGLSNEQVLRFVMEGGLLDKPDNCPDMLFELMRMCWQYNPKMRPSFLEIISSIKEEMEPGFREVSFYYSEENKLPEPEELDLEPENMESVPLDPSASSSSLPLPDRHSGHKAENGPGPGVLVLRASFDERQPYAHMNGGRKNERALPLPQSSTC

| Substance | response to IGF-I after prior EGF (Akt [1]; EGF 4.2 nM for 60 min, then IGF-I 500 pM) | change of nuclear levels of the reporter on growth factor addition (result in words) (Akt [1]) | time to half-maximal translocation/accumulation of reporter in the cytoplasm after onset of incubation (Akt [1]) [min] | time to maximal translocation values (Akt [1]) [min] | response to a second treatment with the same growth factor (Akt [1]; sequential exposures, IGF-I 50 or 500 pM with 90-min washout, EGF 4.2 nM after 60 min EGF) | subcellular localization of FOXO1-clover (result in words) (Akt [1]; serum-starved cells, 60 min, 10% FBS, PDGF-BB 206 pM, R3-IGF-I 1 nM, BMP-2 15 nM) | reporter response in C2 myoblasts compared with 10T1/2 cells (Akt [2]) | signaling response in HeLa FoxO1-clover cells (result in words) (Akt [3]) | Akt phosphorylation (pAkt T308 immunoblot) (Akt phosphorylation [4]; 60 min, 10% FBS, PDGF-BB 206 pM, R3-IGF-I 1 nM, BMP-2 15 nM) | extent of Akt phosphorylation (immunoblot) (Akt phosphorylation [4]; different concentrations of IGF-I, 10T1/2 cells) | extent of Akt phosphorylation (immunoblot) (Akt phosphorylation [5]) | time at which phosphorylation of Akt and PRAS40 was detected (Akt phosphorylation [4]; insulin 1400 pM) [min] | time course of Akt and PRAS40 phosphorylation (result in words) (Akt phosphorylation [4]; insulin 1400 pM, EGF 4.2 nM, PDGF-AA 1400 pM, PDGF-BB 104 pM, up to 90 min) | affinity for IGF-I receptor relative to insulin receptor (fold less) (IGF-I receptor) [fold] |
| --- | --- | --- | --- | --- | --- | --- | --- | --- | --- | --- | --- | --- | --- | --- |
| R3-IGF-I: growth factor purchased from GroPep; binds minimally to IGF binding proteins; activates Akt | rapid, extensive, and sustained signaling response | rapid and dose-dependent reduction in nuclear levels of the reporter | 8 to 10 | 14 to 16 | qualitatively similar population responses to each dose | rapid and sustained translocation of the reporter from the nucleus to the cytoplasm | marked increase in sensitivity to IGF-I | sustained signaling effects | stimulation of Akt phosphorylation | dose-dependent increase in the extent of Akt phosphorylation | dose-dependent increase in the extent of Akt phosphorylation | – | – | – |
| insulin: recombinant human insulin (Tocris Bioscience) | – | rapid, dose-dependent, and sustained decrease in nuclear levels of FoxO1-clover | 8 to 15 | ~20 | – | – | – | sustained signaling effects | – | – | – | ≤ 5 | rapid and sustained | ~1000 |
